Tested on: INH-resistant ΔkatG H37Rv
Experiment: microbe, parasite or virus in culture
Type: cell-based, Mycobacterium tuberculosis

With `CCN(CC)CCCC(C)Nc1ccnc2cc(Cl)ccc12` (racemic) [racemic CQ, chloroquine] the “EC80 against ΔkatG H37Rv” value was ~50 µM.
For `CCN(CC)CCC[C@@H](C)Nc1ccnc2cc(Cl)ccc12` [R-CQ, (R)-chloroquine], the “EC80 against ΔkatG H37Rv” value was 1 µM and the “microbicidal capacity compared with S-CQ or racemic CQ” value was “significantly higher”.
For `CCN(CC)CCC[C@H](C)Nc1ccnc2cc(Cl)ccc12` [S-CQ, (S)-chloroquine], the inhibition at 50 µM (Mycobacterium tuberculosis, H37RV, RAW264.7) was 60%.

Source: patent US20160113919A1 (The Board of Trustees of the Leland Stanford Junior …, priority 2014, published 2016)
